Measured values taken from patent publication US20120083522A1, “MODULATION OF INFLAMMATORY RESPONSES BY FACTOR XI” (Isis Pharmaceuitcals, inc., priority 2009, published 2012).
In the oligonucleotide strings, read from the 5' end, every base follows the letter of its sugar. An asterisk marks phosphorothioate; unmarked linkages are phosphodiester. Other units and linkages are bracketed, terminal groups are in braces. A string of capitals states the bases alone. e = 2'-O-(2-methoxyethyl) (MOE); [5mC] = 5-methylcytosine; d = 2'-deoxy (DNA)

Experiments:
[1] = Cynomolgus monkeys: hematology assays (Example 29); assay type: in vivo
In short: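 Groups of 2 male and 3 female monkeys got subcutaneous oligonucleotide or PBS, escalating 5, 10, then 25 mg/kg two or three times weekly over 12 weeks; one group received a chronic 5 then 10 mg/kg regimen. Blood was sampled 14 and 5 days pre-dose, then weekly, for hematology; necropsy on day 85.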

[2] = test system: DSS-induced colitis model; experiment: Colitis Study E: weight change, colon length, stool analysis; assay type: in vivo, Swiss Webb mice; conditions: for Colon length / Weight change / Diarrhea score: DSS-treated mice; for Colon length / Weight change: 40 mpk; for Diarrhea score: day 7, 40 mpk
Description: Two groups 8 Swiss Webb mice were dosed with 40 mg/kg of ISIS 404071 injected subcutaneously twice a week for 3 weeks. Two control groups of 8 Swiss Webb mice were dosed with PBS subcutaneously twice a week for 3 weeks. Both the ASO treated groups and one of the control groups were then given 4% DSS in distilled water for 7 days ad libitum. One of the ASO and DSS treated groups was also given intravenous injections of 20 μg of recombinant human Factor XI protein (Haematologic Technologies Inc.) for 7 consecutive days, starting the day before DSS treatment. Mice were sacrificed at the end of the study on day 7 after DSS was administered.
Mice in all groups were weighed at day 0 and at the end of the study. […] Mice were sacrificed at the end of the study on day 7 after DSS was administered and their colon lengths were measured.

[3] = test system: DSS-induced colitis model; experiment: Colitis Study F: body weight, stool scores, colon length and weight; assay type: in vivo, Swiss Webb mice
Description: In a first group of 8 Swiss Webb mice, 50 mg/kg of ISIS 404071 was injected subcutaneously twice a week for 3 weeks. Two control groups of 8 mice each were injected with PBS twice a week for 3 weeks. After the oligonucleotide treatment, 4% DSS in water was administered ad libitum for 7 days to the experimental group and one PBS control group. Mice were sacrificed at the end of the study on day 7 after DSS was administered.
Mice in all groups were weighed at day 0 and daily for 7 days after administration of DSS. Mice were sacrificed at the end of the study on day 7 after DSS was administered and their colon lengths and weight were measured as shown in Table 45.

[4] = test system: DSS-induced colitis model; experiment: Colitis Study A: colon tissue histopathology
[5] = test system: thrombin-antithrombin (TAT) complexes; experiment: Colitis Study D: TAT levels in colon; assay type: in vivo, Swiss Webb mice; conditions: for TAT levels in colon: DSS-treated mice
Description: (§1) In a first group of 8 Swiss Webb mice, 10 mg/kg of ISIS 404071 was injected subcutaneously twice a week for 3 weeks. In a second group of 8 Swiss Webb mice, 20 mg/kg of ISIS 404057 was subcutaneously injected twice a week for 3 weeks. In a third control group of 8 Swiss Webb mice, 40 mg/kg of ISISI 404057 was injected subcutaneously twice a week for 3 weeks. Two control groups of 8 mice each were injected with PBS twice a week for 3 weeks. After the oligonucleotide treatment, 4% DSS in water was administered ad libitum for 7 days to all the experimental groups and one PBS control group.
Mice with dextran sodium sulfate (DSS)-induced colitis have elevated level of thrombin-antithrombin (TAT) complexes in blood (Anthoni, C. et al., J. Exp. Med. 204: 1595-1601, 2007) that is also observed in patients with ulcerative colitis (Kume, K. et al., Intern Med. 2007. 46: 1323-9). The effect of antisense inhibition of Factor XI on TAT levels in the colon was evaluated (Thrombi-Anti-Thrombin III complex, Siemens Healthcare Diagnostics, Deerfield, Ill.) and the results are presented in Table 30.

[6] = test system: bradykinin; experiment: Colitis Study D: bradykinin levels in colon; assay type: in vivo, Swiss Webb mice; conditions: for Bradykinin levels in colon: DSS-treated mice
Description: as §1
The effect of antisense inhibition of Factor XI on kinin levels in the colon was evaluated (Phoenix Pharmaceuticals, Burlingame, Calif.) and the results are presented in Table 32.

[7] = plus human recombinant FXI 20 ug/mouse/day
[8] = DSS-treated mice, 50 mg/kg, day 7

Substance: ISIS 416850: gapmer of Table 8 (antisense eT*eG*e[5mC]*eA*e[5mC]*dA*dG*dT*dT*dT*d[5mC]*dT*dG*dG*d[5mC]*eA*eG*eG*e[5mC]*e[5mC])
- platelet count ([1]; day 8): 548000 µL⁻¹
- platelet count ([1]; day 8, chronic dose regimen (*)): 401000 µL⁻¹
- platelet count ([1]; day 15): 559000 µL⁻¹
- platelet count ([1]; day 15, chronic dose regimen (*)): 396000 µL⁻¹
- platelet count ([1]; day 22): 466000 µL⁻¹
- platelet count ([1]; day 22, chronic dose regimen (*)): 347000 µL⁻¹
- platelet count ([1]; day 29): 475000 µL⁻¹
- platelet count ([1]; day 29, chronic dose regimen (*)): 370000 µL⁻¹
- platelet count ([1]; day 36): 505000 µL⁻¹
- platelet count ([1]; day 36, chronic dose regimen (*)): 379000 µL⁻¹
- platelet count ([1]; day 43): 490000 µL⁻¹
- platelet count ([1]; day 43, chronic dose regimen (*)): 391000 µL⁻¹
- platelet count ([1]; day 50): 487000 µL⁻¹
- platelet count ([1]; day 50, chronic dose regimen (*)): 351000 µL⁻¹
- Monocytes ([1]; day 57): n.d. 3.2%
- platelet count ([1]; day 57): 528000 µL⁻¹
- Monocytes ([1]; day 64): n.d. 3.5%
- platelet count ([1]; day 64): 496000 µL⁻¹
- Monocytes ([1]; day 71): n.d. 4.7%
- platelet count ([1]; day 71): 465000 µL⁻¹
- Monocytes ([1]; day 78): n.d. 4.5%
- platelet count ([1]; day 78): 449000 µL⁻¹
- Monocytes ([1]; day 85): n.d. 3.5%
- platelet count ([1]; day 85): 458000 µL⁻¹
- platelet count ([1]; day −5): 573000 µL⁻¹
- platelet count ([1]; day −5, chronic dose regimen (*)): 434000 µL⁻¹
- platelet count ([1]; day −14): 528000 µL⁻¹
- platelet count ([1]; day −14, chronic dose regimen (*)): 387000 µL⁻¹

Substance: TGGTAATCCACTTTCAGAGG (eT*eG*eG*eT*eA*dA*dT*d[5mC]*d[5mC]*dA*d[5mC]*dT*dT*dT*d[5mC]*eA*eG*eA*eG*eG) [ISIS 404071, 5-10-5 MOE gapmer targeting murine Factor XI, target start site 869]
- colon length (in words) ([2]; Colitis Study E, day 7): increase in colon length
- stool softness/diarrhea (in words) ([2]; Colitis Study E, day 7): amelioration of diarrhea
- Colon length ([2]; no human recombinant FXI): 9.9 cm
- Weight change ([2]; no human recombinant FXI): +1.8%
- Colon length [2, 7]: 7.3 cm
- Weight change [2, 7]: +0.3%
- Diarrhea score ([2]; no human recombinant FXI): 0.5
- Diarrhea score [2, 7]: 2.0
- body weight (in words) ([3]; Colitis Study F, 50 mg/kg, compared to placebo): did not significantly affect body weight
- Body weight (day 0) ([3]; DSS-treated mice, 50 mg/kg s.c. twice a week for 3 weeks, day 0): 28 grams
- Body weight (day 7) ([3]; DSS-treated mice, 50 mg/kg s.c. twice a week for 3 weeks, day 7): 24.7 grams
- Stool score ([3]; DSS-treated mice, 50 mg/kg, Day 3): 0
- Stool score ([3]; DSS-treated mice, 50 mg/kg, Day 4): 0.25
- Stool score ([3]; DSS-treated mice, 50 mg/kg, Day 5): 1
- Stool score ([3]; DSS-treated mice, 50 mg/kg, Day 6): 1
- Stool score ([3]; DSS-treated mice, 50 mg/kg, Day 7): 1
- Colon length [3, 8]: 7.8 cm
- Colon weight [3, 8]: 339.3 mg
- colon histology, lesions (in words) ([4]; FIG. 8): significantly fewer mucosa ulcerative lesions
- colon histology, lesions (in words) ([4]; FIG. 8, listed as Factor XI): significantly milder ulcerative colitis lesions
- mucosa ulcers ([4]; FIG. 8D, DSS control 2-4/animal): > 1 /animal
- TAT levels in the colon (in words) ([5]; Colitis Study D): decreased in a dose-dependent manner
- TAT levels in colon ([5]; 10 mpk): 1.79 ng/mg protein
- TAT levels in colon ([5]; 20 mpk): 0.65 ng/mg protein
- TAT levels in colon ([5]; 40 mpk): 0.75 ng/mg protein
- bradykinin levels (in words) ([6]; Colitis Study D): decreased
- Bradykinin levels in colon ([6]; 10 mpk): 0.03 ng/mg protein
- Bradykinin levels in colon ([6]; 20 mpk): 0.00 ng/mg protein
- Bradykinin levels in colon ([6]; 40 mpk): 0.02 ng/mg protein
